In one data set the target is T1, MUC1-CD (Homo sapiens, UniProt P15941).
T1 construct: the 72 aa cytoplasmic domain (CD); His; made in house
T1 sequence (P15941 1184-1255 limits assumed): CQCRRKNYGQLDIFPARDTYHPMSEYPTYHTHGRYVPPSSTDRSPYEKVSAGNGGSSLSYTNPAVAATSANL
In words: Plate-based MUC1-CD dimerization inhibition assay (primary screening). In kind it is biochemical. The settings on record: library of Table 1. The procedure: FIG. 6—Schematic Illustration of Primary HTS Screening Assay for MUC1-CD Dimerization. MUC1-CD protein was coated on a 96 well plate and then incubated with Biotinylated MUC1-CD that binds to non-biotinylated MUC1-CD protein by dimer formation. Bound biotinylated MUC1-CD protein was detected by incubation with Streptavin-HRP+peroxidase substrate system.
FIGS. 11A-C—Identification of MUC1-CD dimerization inhibitors in a small molecule screen. (FIG. 11A) Schematic representation of the MUC1-C subunit with the 58 amino acid (aa) extracellular domain (ECD), the 28 aa transmembrane domain (TD) and the 72 aa cytoplasmic domain (CD; SEQ ID NO: 1). The sequence of MUC1-CD is included with highlighting of the CQC dimerization motif. (FIG. 11B) The assay for identification of MUC1-CD dimerization inhibitors is depicted with the following steps: (i) coating of MUC1-CD onto a microplate, (ii) adding soluble biotinylated MUC1-C and […] compound, and (iii) addition of streptavidin-HRP and then peroxide with conversion by HRP to a blue color. The signal is measured by EnVision and proportional to the amount of bound biotin-labeled MUC1-CD.
FIGS. 12A-D—Apigenin is an inhibitor of MUC1-CD dimerization in vitro and in cells. (FIG. 12A) Structures of apigenin and its analogue baicalein. Using the in vitro screening assay, dimerization of MUC1-CD was assessed in the presence of 100 μM apigenin or 100 μM baicalein each dissolved in 0.1% DMSO. The results (mean±SD of 3 determinations) are expressed as percentage of control dimerization in the presence of DMSO alone. (FIG. 12B) MUC1-CD dimerization was assessed in the presence of the indicated concentrations of apigenin in the in vitro screening assay. […] (FIG. 12C) Soluble MUC1-CD was incubated in the presence of 1% DMSO, 1 mM apigenin or 1 mM baicalein for 1 h at room temperature. Monomers and dimmers were assessed by electrophoresis in a non-reducing gel and immunoblotting with anti-MUC1-C. (FIG. 12D) 293 cells were transiently transfected to express an empty vector or GFP-MUC1-CD and Flag-MUC1-CD. At six hours after transfection, the cells were left untreated, and treated with 75 μM apigenin or baicalein for 3 days. Whole-cell lysates were precipitated with anti-Flag, and the precipitates were immunoblotted with the indicated antibodies.
Multi-well (96- or 384-well) plates are coated with non-biotinylated MUC1-CD, and biotinylated MUC1-CD is added to the plates to initiate MUC1-CD dimerization or oligomerization. A luminescent substrate for biotin binding is added to the plate, followed by washing. Resulting fluorescence is detected by luminescence detection at absorbance 405 nm. A complete schematic illustration of this assay is described in […]. Test compounds are added at multiple concentrations to the plates and, following incubation and washing, the plates are read for luminescent detection. The formation of MUC1-CD dimers is detected.
To develop a HTS assay for compounds that inhibit MUC1-CD dimerization, the inventors generated purified His-tagged MUC1-CD protein. They also generated a biotin-labeled His-tagged MUC1-CD protein using a standard biotinylation kit. Biotinylated and non-biotinylated proteins were purified through Nickel columns.
The inventors coated 96- or 384-well plates with non-biotinylated MUC1-CD protein and added biotinylated MUC1-CD protein to the plates to initiate MUC1-CD/MUC1-CD dimerization or oligomerization. They then added a substrate to the plate which will bind to the biotinylated protein (only at the dimer or oligomer state) and the resultant fluorescence was detected by luminescence detection at absorbance 405 nm. A complete schematic illustration of this assay is described in FIG. 6.
Individual compounds from the chemical libraries were then added at multiple concentrations (0.01 μM to 100 μM) to the plates and following incubation and washing, the plates were read by luminescence detection at […]. […]

The target of a further data set is xanthine oxidase (Homo sapiens, UniProt P47989). The settings on record: cited from earlier work.
For data set [1] the following is noted: cited from earlier work.
Data set [2] deals with MUC1-expressing cancer cells. Put plainly: Secondary screen against MUC1-expressing cancer cells in vitro. The data set is classed as cell-based. The settings on record: legend: ZR-75-1 breast carcinoma cells, 2 days, anti-MUC1-C immunoblot. The procedure:
ZR-75-1 breast carcinoma cells were treated with […] Kaempterol for 2 days. Total cell lysates were then analyzed by immunoblotting with anti-MUC1-C antibody (FIG. 17A) or with anti-Actin antibodies (FIG. 17B).
Initial screens were performed in the presence of compounds at a concentration of 100 μM.
In general terms: Immunoblotting shows a protein as a band on a membrane.

The subject of the next data set is hyperammonemia. The settings on record: oral administration, ammonium chloride-treated rats; cited from earlier work.
Data set [3] has as its system mitogen-activated protein kinase kinase (MEK). As to conditions: cited from earlier work.
Data set [4] concerns the target T2, aryl hydrocarbon receptor (AHR) (Rattus norvegicus, UniProt P41738).
T2 construct: Addition of PD98059 to rat liver cytosol just before the addition of TCDD; from tissue; host or cells: rat liver cytosol
As to conditions: rat liver cytosol, added just before TCDD; cited from earlier work.

In the next data set the target is T3, His-MUC1-CD (Homo sapiens, UniProt P15941).
T3 construct: made in house
T3 sequence (P15941 1184-1255): T1 sequence (P15941 1184-1255 limits assumed)
As to conditions: BIAcore analysis, Leng et al., 2007; read-out: dissociation constant (Kd) of MUC1-CD dimers; cited from earlier work. Background: SPR reads the build-up and loss of mass on a sensor chip optically.

Another data set concerns severe sepsis. As to conditions: from about 31% without; cited from earlier work.

Here are results for six compounds from US8952054B2, “Small molecule inhibitors of MUC1 and methods of identifying the same” (Dana-Farber Cancer Institute, Inc., priority 2010, dated 2015).

By Kd is commonly meant the equilibrium constant for the complex coming apart.

Sequence of xanthine oxidase (P47989 whole entry, species assumed): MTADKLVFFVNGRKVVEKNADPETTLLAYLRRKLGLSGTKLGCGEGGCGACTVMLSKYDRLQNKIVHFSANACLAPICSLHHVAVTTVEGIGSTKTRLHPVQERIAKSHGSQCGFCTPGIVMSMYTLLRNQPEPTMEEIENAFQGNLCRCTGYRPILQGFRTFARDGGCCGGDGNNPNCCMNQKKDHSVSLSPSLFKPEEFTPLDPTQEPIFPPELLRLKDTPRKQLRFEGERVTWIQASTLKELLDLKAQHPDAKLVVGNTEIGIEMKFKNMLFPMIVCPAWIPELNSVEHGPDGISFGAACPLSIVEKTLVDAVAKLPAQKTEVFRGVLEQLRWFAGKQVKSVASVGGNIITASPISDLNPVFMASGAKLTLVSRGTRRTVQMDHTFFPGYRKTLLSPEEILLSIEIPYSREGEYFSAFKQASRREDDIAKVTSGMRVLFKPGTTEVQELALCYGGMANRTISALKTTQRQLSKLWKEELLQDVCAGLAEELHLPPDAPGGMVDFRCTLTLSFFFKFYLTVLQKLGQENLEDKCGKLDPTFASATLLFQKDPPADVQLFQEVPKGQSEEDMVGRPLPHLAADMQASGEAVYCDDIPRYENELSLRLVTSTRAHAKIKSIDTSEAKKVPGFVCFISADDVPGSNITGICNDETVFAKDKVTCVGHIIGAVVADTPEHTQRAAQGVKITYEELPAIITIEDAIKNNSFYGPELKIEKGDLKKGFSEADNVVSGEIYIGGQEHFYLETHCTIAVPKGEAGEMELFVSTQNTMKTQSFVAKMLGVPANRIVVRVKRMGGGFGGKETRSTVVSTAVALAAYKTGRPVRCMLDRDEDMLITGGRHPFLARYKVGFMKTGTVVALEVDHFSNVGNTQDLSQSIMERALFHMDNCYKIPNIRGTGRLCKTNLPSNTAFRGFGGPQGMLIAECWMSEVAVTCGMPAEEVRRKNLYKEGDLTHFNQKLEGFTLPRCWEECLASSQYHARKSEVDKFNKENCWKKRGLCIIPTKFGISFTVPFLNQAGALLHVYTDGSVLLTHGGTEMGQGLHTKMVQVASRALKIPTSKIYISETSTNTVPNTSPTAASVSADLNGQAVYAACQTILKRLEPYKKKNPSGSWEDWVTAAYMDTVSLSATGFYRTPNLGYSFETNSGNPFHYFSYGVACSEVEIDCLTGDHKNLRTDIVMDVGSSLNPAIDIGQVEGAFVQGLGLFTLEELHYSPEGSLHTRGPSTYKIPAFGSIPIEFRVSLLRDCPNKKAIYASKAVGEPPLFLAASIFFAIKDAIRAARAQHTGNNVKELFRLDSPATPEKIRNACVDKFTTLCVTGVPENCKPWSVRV
T2 sequence (P41738 10-853): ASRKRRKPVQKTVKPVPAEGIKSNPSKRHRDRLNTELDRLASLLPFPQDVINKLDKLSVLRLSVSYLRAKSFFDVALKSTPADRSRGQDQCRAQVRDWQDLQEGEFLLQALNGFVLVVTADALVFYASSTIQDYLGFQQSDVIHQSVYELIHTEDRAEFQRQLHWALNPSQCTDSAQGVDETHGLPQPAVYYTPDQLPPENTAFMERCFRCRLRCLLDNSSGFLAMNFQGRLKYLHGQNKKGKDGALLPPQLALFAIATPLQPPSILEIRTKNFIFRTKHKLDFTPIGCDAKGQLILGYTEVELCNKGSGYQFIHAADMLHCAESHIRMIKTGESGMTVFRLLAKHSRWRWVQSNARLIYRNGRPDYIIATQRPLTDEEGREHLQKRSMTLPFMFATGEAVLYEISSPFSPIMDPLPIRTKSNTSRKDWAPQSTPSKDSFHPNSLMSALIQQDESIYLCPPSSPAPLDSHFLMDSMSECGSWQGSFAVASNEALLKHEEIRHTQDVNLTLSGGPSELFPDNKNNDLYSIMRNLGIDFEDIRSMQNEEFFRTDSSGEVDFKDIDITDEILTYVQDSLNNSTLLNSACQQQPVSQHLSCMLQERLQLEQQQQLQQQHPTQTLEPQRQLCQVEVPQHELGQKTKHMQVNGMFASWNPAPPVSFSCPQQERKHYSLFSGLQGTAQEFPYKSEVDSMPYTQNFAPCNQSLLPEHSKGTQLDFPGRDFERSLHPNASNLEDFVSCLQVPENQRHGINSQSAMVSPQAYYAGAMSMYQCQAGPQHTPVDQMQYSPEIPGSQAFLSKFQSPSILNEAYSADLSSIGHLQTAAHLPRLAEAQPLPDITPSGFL

Regarding `O=c1c(O)c(-c2ccc(O)c(O)c2)oc2cc(O)ccc12` [Fisetin], at MUC1-CD, the “initial library screen result” value was “MUC1 dimerization inhibitory compounds”. In addition, on xanthine oxidase, the “inhibition of xanthine oxidase” value is “inhibit xanthine oxidase”.
On to `O=c1c(O)c(-c2ccc(O)cc2)oc2cc(O)cc(O)c12` [Kaempferol], for which the “solubility in organic solvents” value in [1] (hot ethanol and diethyl ether) was “soluble in hot ethanol and diethyl ether”. The solubility in water entry in data set [1] (water) is given as “slightly soluble in water”. Also, the “inhibition (FIGS. 17A-B)” value in data set [2] was “showed inhibition”.
Take `O=c1c(O)c(-c2ccc(O)cc2O)oc2cc(O)cc(O)c12` [Morin, 3,5,7,2′,4′-pentahydroxyflavone]: the “ammonia, urea, lipid peroxidation” value with hyperammonemia is “significant reduction in ammonia, urea, lipid peroxidation”. Also, at MUC1-CD, the “initial library screen result” value is recorded as “MUC1 dimerization inhibitory compounds”.
As for `COc1cccc(-c2cc(=O)c3ccccc3o2)c1N` [PD98059, 2-(2′-amino-3′-methoxyphenyl)-oxanaphthalen-4-one], the “inhibition of MEK” value in data set [3] was “potent inhibitor”. Besides, the “TCDD binding to AHR” value in [4] is on record as “suppressed TCDD binding”. For the same compound, the “initial library screen result” value on MUC1-CD was “MUC1 dimerization inhibitory compounds”.
Regarding “MUC1-CD: 72-amino acid MUC1 cytoplasmic domain (SEQ ID NO:1)”, in the data set with His-MUC1-CD, the Kd is 33 nM.
Consider drotrecogin alfa, for which the mortality entry in the data set on severe sepsis is on record as “about 25%”.
